Assay results reported in patent US7183255B2, “Method for stabilizing blood pressure in hemodialysis subjects” (Intradialytic Pharmaceuticals, priority 2003, dated 2007).

Key:
Type in all cases: in vivo, human
[1] = test system: ESRD patients during hemodialysis; test: Similar study of fluid removal by hemodialysis with AVP vs placebo (FIG. 7); conditions: five patients on AVP (FIG. 7)
Excerpt: FIG. 7 depicts greater fluid removal by hemodialysis with AVP.

[2] = test system: ESRD patients during hemodialysis; test: Systolic arterial pressure during hemodialysis with AVP infusion vs vehicle, twelve patients (Example 1); conditions: for systolic arterial pressure: dialysis with AVP infused, M ± SD
Experimental: (§1) Healthy controls and patients with end-stage renal disease (e.g. defined as creatinine clearance of less than 10 ml/min) were studied. The studies were conducted on regularly scheduled hemodialysis days. The duration of hemodialysis remained the same as that prescribed prior to the study period. AVP or placebo (normal saline) was administered at a constant rate of 0.15, 0.3 or o.6 mU/kg/min through a venous line (controls) or through the venous limb of the dialysis circuit (hemodialysis patients). The patient's hemodialysis prescription remained unchanged except for the administration of AVP or placebo. Intradialytic hypotension was treated in the customary manner with the infusion of isotonic and hypertonic fluids.
(§2) Serum AVP levels were determined by a radioimmunoassay technique. Blood pressure was measured with a cuff-type sphygmomanometer at 20 minute intervals.
AVP administration results in a higher intra-dialysis blood pressure. To examine whether vasopressin could help in supporting blood pressure during dialysis, we dialyzed a group of ESRD patients during administration of vehicle or during administration of vasopressin at a dose without pressor effect in normal subjects.
To determine the blood pressure effect of exogenous AVP during dialysis, two dialysis treatments were administered to twelve patients. In one, only the vehicle used to administer AVP was given while in the other treatment, AVP was infused. As shown, systolic arterial pressure decreased more than 10 mm Hg during the control dialysis while it decreased a maximum of 5 mm Hg during the dialysis in which AVP was infused.

[3] = Plasma AVP (radioimmunoassay) during constant AVP infusion, control vs hemodialysis periods (Example 1); design: plasma concentration of AVP at 2 h: unit not given here; conditions: for plasma concentration of AVP at 2 h: ESRD patients, n=4
Experimental: as §1, §2
Plasma AVP is not dialyzed. To examine whether administration of exogenous AVP could prevent intradialytic hypotension, it was first determined whether the dialysis procedure removed the hormone from the blood. To determine this, AVP was administered at doses that had no effect in normal subjects and determined the plasma concentrations and pressure responses to AVP infusion in healthy control subjects and hemodialysis patients.
To rule out the possibility that the lack of a rise in plasma AVP during dialysis was due to the fact that the newly secreted hormone was being dialyzed as was being secreted, we measured plasma AVP during the infusion of exogenous AVP to ERDS patients during control conditions and during hemodialysis.

[4] = test system: hypertensive patients with ESRD on chronic hemodialysis; test: Randomized double-blinded trial of vasopressin vs placebo during hemodialysis with 0.5 kg increased target weight reduction (Example 3); conditions: vasopressin 0.3 mU·kg^−1·min^−1 during dialysis; for Lowest SAP: p=0.02 vs placebo; for Symptomatic hypotensive episodes: one of eleven patients, p=0.001 vs placebo
Experimental: All patients were studied at regularly scheduled dialysis sessions. Patients underwent conventional hemodialysis with hollow fiber high flux polysulfone dialyzers on volumetric dialysis machines (Cobe Centrysystem 3, Gambro Renal Care Products, Inc., Lakewood, Colo.). Dialysis times were 3.5–4.5 hours. Blood flow was 300–400 mL/min and dialysate was delivered at 600 mL/min. The dialysis bath contained potassium, 2 mEq/L; calcium, 2.5 mEq/L; magnesium, 0.75 mEq/L; and bicarbonate, 40 mEq/L. In those patients who were prescribed dialysate sodium modeling and/or reduced dialysate temperature (35–37° C.) prior to the study, the parameters of these interventions were held constant throughout the study. Ultrafiltration was performed at a constant rate based on the target weight loss for that dialysis session. Oscillometric blood pressure and heart rate measurements were taken at 15–30 minute intervals.
Exclusion criteria for all studies were: 1) active vascular disease, including angina, claudication, transient ischemic events, ischemic colitis and Raynaud's disease, 2) a history of prolonged QT syndrome, 3) a history of orthostatic hypotension and 4) a systolic blood pressure greater than 200 mm Hg and/or a diastolic blood pressure greater than 100 mm Hg. Fluid was administered for pressor support at the discretion of the dialysis staff, blinded to the study drug, on the basis of hypotensive episodes during dialysis. Excess fluid removed was defined as the difference between the baseline prescription weight loss and the actual weight loss achieved during the study hemodialysis.
Hemodialysis-induced fluid removal during vasopressin administration in hypertensive patients. 22 patients with ESRD on chronic hemodialysis and hypertension (defined by a systolic arterial pressure greater than 140 mm Hg or the requirement of anti-hypertensive medications to maintain a lower systolic arterial pressure) were studied. A randomized, controlled and double blinded trial compared the effect of vasopressin (0.3 mU·kg^−1·min^−1) or placebo (normal saline) on the capacity to tolerate a 0.5 kg increase in the target weight reduction specified by the standard dialysis prescription. Patients were studied only if their pre-dialysis weight was within ±1 kg. of the mean pre-dialysis weight of the previous three sessions.
Otherwise the hemodialysis routine was unchanged and its management was left to the health care personnel performing the treatment, who where not involved in the study. The nurse administering the hemodialysis treatment managed hypotensive episodes per routine with administration of normal saline and/or a decrease in ultrafiltration rate. Symptomatic hypotension was identified by the nurse conducting the dialysis and criteria included a sudden drop in systolic arterial pressure associated with one or more of the following: lightheadedness, dizziness, cramping, nausea and vomiting.
Statistical Analyses. Analyses were performed using Statistical Package for the Social Sciences, version 9. Changes in hemodynamic parameters within patients during each session and between sessions were analyzed by repeated measures of ANOVA. Analysis of continuous variables between treatment arms was performed using the Friedman (two-way) analysis of variance. All values are expressed as mean±SE unless otherwise stated. P values of less than […] (two-tailed) were considered statistically significant.
Effect of vasopressin administration during increased hemodialysis-induced luid removal. […]

Compound: NC(=O)CC[C@@H]1NC(=O)[C@H](Cc2ccccc2)NC(=O)[C@H](Cc2ccc(O)cc2)NC(=O)[C@@H](N)CSSC[C@@H](C(=O)N2CCC[C@H]2C(=O)N[C@@H](CCCN=C(N)N)C(=O)NCC(N)=O)NC(=O)[C@H](CC(N)=O)NC1=O [AVP, 8-arginine vasopressin]
- blood pressure stability and extra fluid removal [1]: the blood pressure was stable and extra fluid removal was possible
- decrease of systolic arterial pressure during dialysis ([2]; dialysis in which AVP was infused, control dialysis decreased more than 10 mm Hg): ≤ 5 mm Hg
- systolic arterial pressure ([2]; 30 minutes of dialysis): 153 ± 25 mm Hg
- systolic arterial pressure ([2]; 60 minutes of dialysis): 155 ± 29 mm Hg
- systolic arterial pressure ([2]; 90 minutes of dialysis): 149 ± 30 mm Hg
- systolic arterial pressure ([2]; 120 minutes of dialysis): 148 ± 30 mm Hg
- systolic arterial pressure ([2]; 150 minutes of dialysis): 149 ± 31 mm Hg
- systolic arterial pressure ([2]; 180 minutes of dialysis): 149 ± 30 mm Hg
- systolic arterial pressure ([2]; before dialysis, twelve patients): 153 ± 28 mm Hg
- clearance of the hormone from the blood by hemodialysis ([3]; HD instituted during constant AVP infusion): does not clear the hormone from the blood
- plasma concentration of AVP at 2 h ([3]; constant infusion dose 0.15, control period): 25.7
- plasma concentration of AVP at 2 h ([3]; constant infusion dose 0.15, hemodialysis period): 28.9
- plasma concentration of AVP at 2 h ([3]; constant infusion dose 0.3, control period): 47.4
- plasma concentration of AVP at 2 h ([3]; constant infusion dose 0.3, hemodialysis period): 51.2
- plasma concentration of AVP at 2 h ([3]; constant infusion dose 0.6, control period): 100.0
- plasma concentration of AVP at 2 h ([3]; constant infusion dose 0.6, hemodialysis period): 104.6
- plasma level of AVP ([3]; infusion of 0.3 mU/kg/min, hemodialysis patients and control subjects): ~40 pg/m
- Mean SAP during dialysis ([4]; 11 patients, mean±SE): 145 ± 6 mmHg
- Lowest SAP ([4]; 11 patients, mean±SE, listed as Vasopressin): 130 ± 7 mmHg
- Lowest SAP ([4]; 11 patients, mean±SE, listed as vasopressin): 130±7 mmHg
- Maximum drop in SAP from mean ([4]; 11 patients, mean±SE, p=0.03 vs placebo, listed as Vasopressin): 17 ± 2 mmHg
- Maximum drop in SAP from mean ([4]; 11 patients, mean±SE, p=0.03 vs placebo, listed as vasopressin): 17±2 mmHg
- Symptomatic hypotensive episodes ([4]; listed as Vasopressin): 9 ± 1%
- Symptomatic hypotensive episodes ([4]; listed as vasopressin): 9%
- normal saline administered for pressure support ([4]; p=0.03 vs placebo, FIG. 10A): 40 ± 43 mL
- volume of extra fluid removed during the dialysis above the baseline prescription ([4]; p=0.045 vs. placebo, FIG. 10B): 460 ± 100 mL
